Reference: patent EP1067137B1, “Granules of alpha-L-aspartyl-L-phenylalnine methyl ester” (Ajinomoto Co., Inc., priority 1991, dated 1992)
Peptide text beside a SMILES is read from it.

Assays:
[1] = Dissolution time of α-APM granules in water; format: physicochemical; settings: 8 g of sample in 2 liters of water, 20 °C, 350 rpm
Method: The dissolution time of the α-APM granules thus obtained was measured by the method mentioned below, and the results obtained are shown in Table 1.
First, 2 liters of water were previously put in a 3-liter beaker and stirred with a magnetic stirrer.
The size of the stirrer to be used for the stirring was 70 mm x 15 mm φ and the rotation number was set to be 350 rpm with Whatman Dataplate 440. The temperature of the water was kept to be 20 ° C by the use of a hot plate. 8 g of a sample was put into the water under the determined condition, whereupon the time needed for completely dissolving it in the water was measured to be the dissolution time of the sample.

[2] = relative to sucrose (cane sugar); cited from earlier work
[3] = Original Powder before Granulation
[4] = granules, Grain Size 100 to 150 µm
[5] = granules, Grain Size 150 to 180 µm
[6] = granules, Grain Size 180 to 300 µm
[7] = granules, Grain Size 300 to 500 µm
[8] = granules, Grain Size 500 to 850 µm
[9] = granules, Grain Size 850 to 1400 µm

Dissolution Time [1, 3] [min] | Dissolution Time [1, 4] [min] | Dissolution Time [1, 5] [min] | Dissolution Time [1, 6] [min] | Dissolution Time [1, 7] [min] | Dissolution Time [1, 8] [min] | Dissolution Time [1, 9] [min] | Compound | sweetness [2]
15 | 10 | 7 | 9 | 17 | 24 | 35 | COC(=O)[C@H](Cc1ccccc1)NC(=O)[C@@H](N)CC(=O)O [sample B, α-L-aspartyl-L-phenylalanine methyl ester] (H-Asp-Phe-OMe) | 
 |  |  |  |  |  |  | COC(=O)[C@H](Cc1ccccc1)NC(=O)[C@@H](N)CC(=O)O [α-APM, α-L-aspartyl-L-phenylalanine methyl ester] (H-Asp-Phe-OMe) | about 200 times that of sucrose
30 | 15 | 8 | 11 | 18 | 25 | 38 | COC(=O)[C@H](Cc1ccccc1)NC(=O)[C@@H](N)CC(=O)O [sample A, α-L-aspartyl-L-phenylalanine methyl ester] (H-Asp-Phe-OMe) | 
60 | 36 | 20 | 12 | 19 | 27 | 38 | COC(=O)[C@H](Cc1ccccc1)NC(=O)[C@@H](N)CC(=O)O [sample C, α-L-aspartyl-L-phenylalanine methyl ester] (H-Asp-Phe-OMe) | 
